Results taken from EP0326331B1, “Substituted quinolines and cinnolines” (Dow AgroSciences LLC, priority 1988, dated 1989).
Like-named read-outs stand apart in the source and are kept apart here.

Experiments:
Assay type in all cases: in vivo
[1] = test system: Erysiphe graminis tritici (powdery mildew); assay: Test 1 greenhouse foliar spray screen, powdery mildew on wheat; conditions: disease control rating, foliar spray on wheat, 400 ppm (+++ at 100 ppm)
[2] = test system: Pyricularia oryzae (rice blast); assay: whole plant or invertebrate; conditions: disease control rating, foliar spray on rice, 400 ppm (+++ at 100 ppm)
[3] = test system: Puccinia recondita tritici (leaf rust); assay: Test 1 greenhouse foliar spray screen, leaf rust on wheat; conditions: disease control rating, foliar spray on wheat, 400 ppm (+++ at 100 ppm)
[4] = test system: Botrytis cinerea (gray mold); assay: Test 1 greenhouse foliar spray screen, gray mold on grape berries; conditions: disease control rating, spray on grape berries, 400 ppm (+++ at 100 ppm)
[5] = test system: Pseudoperonospora cubensis (downy mildew); assay: Test 1 greenhouse foliar spray screen, downy mildew on squash; conditions: disease control rating, foliar spray on squash, 400 ppm (+++ at 100 ppm)
[6] = test system: Cercospora beticola (leaf spot); assay: Test 1 greenhouse foliar spray screen, leaf spot on sugar beet; conditions: disease control rating, foliar spray on sugar beet, 400 ppm (+++ at 100 ppm)
[7] = test system: Venturia inaequalis (apple scab); assay: Test 1 greenhouse foliar spray screen, apple scab on apple seedling; conditions: disease control rating, foliar spray on apple seedling, 400 ppm (+++ at 100 ppm)
[8] = test system: Septoria tritici (leaf blotch); assay: Test 1 greenhouse foliar spray screen, leaf blotch on wheat; conditions: disease control rating, foliar spray on wheat, 400 ppm (+++ at 100 ppm)
[9] = test system: southern armyworm (Spodopetra eridania Cramer); assay: Mite/insect screen, SAW; conditions: Spodoptera eridania, read-out: SAW RESULTS %; for mortality at 400 ppm: SM & MA RATE 400 PPM
Outline: (§1)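 Formulation: acetone/alcohol 50:50 + sulfonate/nonionic emulsifiers, water-diluted to indicated concs. Spray both leaf surfaces to runoff, 10 psi; dry 1 h. Armyworm: 2 excised uninfested leaves in Petri dish. Score % mortality after standard exposure.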

[10] = test system: Twospotted spider mites (Tetranychus urticae Koch); assay: Mite/insect screen, SM; conditions: for mortality at 200 ppm / mortality at 400 ppm: Tetranychus urticae, read-out: SM RESULTS %; for mortality at 400 ppm: SM & MA RATE 400 PPM
Outline: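 Compounds dissolved in 50:50 acetone/alcohol containing sulfonate/nonionic emulsifier blends, then diluted with water to the indicated concentrations. Leaves sprayed on both surfaces to runoff at 10 psi and dried one hour. Percent mortality scored after standard exposure periods.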

[11] = test system: melon aphids (Aphis gossypii Glover); assay: Mite/insect screen, MA; conditions: Aphis gossypii, read-out: MA RESULTS %; for mortality at 400 ppm: SM & MA RATE 400 PPM
Outline: as §1

corn rootworm = assay: Mite/insect screen, CRW; conditions: read-out: CRW RESULTS %; for mortality at 24 ppm: CRW RATE 24.00 PPM
Outline: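 Percent mortality is evaluated once the standard exposure period ends. Test material is applied as a water dilution of an acetone/alcohol (50:50) stock carrying two sulfonate/nonionic emulsifiers (23 and 13 g per liter).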

[12] = percent mortality, SAW, SM & MA RATE 200 PPM
[13] = percent mortality, CRW RATE 12.00 PPM

| SMILES | POWD MDEW [1] | RICE BLAST [2] | LEAF RUST [3] | GRAY MOLD [4] | DOWN MDEW [5] | LEAF SPOT [6] | APPL SCAB [7] | LEAF BLOT [8] | mortality at 200 ppm [9, 12] | mortality at 200 ppm [10, 12] | mortality at 200 ppm [11, 12] | mortality at 12 ppm (corn rootworm; [13]) | other results |
| --- | --- | --- | --- | --- | --- | --- | --- | --- | --- | --- | --- | --- | --- |
| Fc1ccc2nccc(NCCc3ccc(Cl)cc3)c2c1 [Example 56, N-[2-(4-chlorophenyl)ethyl]-6-fluoro-4-quinolinamine] | - (0-19% control at 400 ppm) | ++ (90-100% control at 400 ppm) | ++ (90-100% control at 400 ppm) | - (0-19% control at 400 ppm) | +++ (90-100% control at 100 ppm) | +++ (90-100% control at 100 ppm) | - (0-19% control at 400 ppm) | + (20-89% control at 400 ppm) | 100% | 0% | 0% | 0% | mortality at 400 ppm ([9]; percent mortality, SAW): 80%; mortality at 400 ppm ([10]; percent mortality, SAW): 0%; activity as miticides ([10]; summary statement in the description): particularly excellent activity; mortality at 400 ppm ([11]; percent mortality, SAW): 0%; mortality at 24 ppm (corn rootworm; percent mortality): 0% |
| Cc1cc(NCCc2ccc(Cl)cc2)c2cc(F)ccc2n1 [Example 57, N-[2-(4-chlorophenyl)ethyl]-2-methyl-6-fluoro-4-quinolinamine] | - (0-19% control at 400 ppm) | ++ (90-100% control at 400 ppm) | + (20-89% control at 400 ppm) | - (0-19% control at 400 ppm) | ++ (90-100% control at 400 ppm) | +++ (90-100% control at 100 ppm) | - (0-19% control at 400 ppm) | - (0-19% control at 400 ppm) | 40% | 0% | 0% | 0% | mortality at 400 ppm ([9]; percent mortality, SAW): 50%; mortality at 400 ppm ([10]; percent mortality, SAW): 0%; mortality at 400 ppm ([11]; percent mortality, SAW): 0%; mortality at 24 ppm (corn rootworm; percent mortality): 0% |
| Fc1cccc2c(NCC(c3ccccc3)C3CCCCC3)ccnc12 (stereo not drawn) [Example 62, 8-fluoro-N-(2-cyclohexyl-2-phenylethyl)-4-quinolinamine] | - (0-19% control at 400 ppm) | ++ (90-100% control at 400 ppm) | ++ (90-100% control at 400 ppm) | - (0-19% control at 400 ppm) | +++ (90-100% control at 100 ppm) | - (0-19% control at 400 ppm) | - (0-19% control at 400 ppm) | + (20-89% control at 400 ppm) | – | – | – | – | mortality at 400 ppm ([9]; percent mortality, SAW): 0%; mortality at 400 ppm ([10]; percent mortality, SAW): 0%; mortality at 400 ppm ([11]; percent mortality, SAW): 0%; mortality at 24 ppm (corn rootworm; percent mortality): 0% |
| Fc1cccc(F)c1CCNc1ccnc2c(F)cccc12 [Example 65, N-[2-(2,6-difluorophenyl)ethyl]-8-fluoro-4-quinolinamine] | + (20-89% control at 400 ppm) | + (20-89% control at 400 ppm) | ++ (90-100% control at 400 ppm) | - (0-19% control at 400 ppm) | +++ (90-100% control at 100 ppm) | - (0-19% control at 400 ppm) | - (0-19% control at 400 ppm) | + (20-89% control at 400 ppm) | 0% | 0% | 0% | 0% | – |
| Fc1cccc(CCNc2ccnc3c(F)cccc23)c1 [Example 66, 8-fluoro-N-[2-(3-fluorophenyl)ethyl]-4-quinolinamine] | + (20-89% control at 400 ppm) | ++ (90-100% control at 400 ppm) | +++ (90-100% control at 100 ppm) | - (0-19% control at 400 ppm) | +++ (90-100% control at 100 ppm) | +++ (90-100% control at 100 ppm) | - (0-19% control at 400 ppm) | + (20-89% control at 400 ppm) | 0% | 0% | 0% | 0% | – |
| COc1cc(CCNc2ccnc3ccccc23)cc(OC)c1 [Example 67, N-[2-(3,5-dimethoxyphenyl)ethyl]-4-quinolinamine] | - (0-19% control at 400 ppm) | + (20-89% control at 400 ppm) | + (20-89% control at 400 ppm) | - (0-19% control at 400 ppm) | ++ (90-100% control at 400 ppm) | + (20-89% control at 400 ppm) | - (0-19% control at 400 ppm) | - (0-19% control at 400 ppm) | 0% | 0% | 0% | 0% | – |
| COc1ccccc1CCNc1ccnc2c(F)cccc12 [Example 68, 8-fluoro-N-[2-(2-methoxyphenyl)ethyl]-4-quinolinamine] | + (20-89% control at 400 ppm) | + (20-89% control at 400 ppm) | +++ (90-100% control at 100 ppm) | - (0-19% control at 400 ppm) | ++ (90-100% control at 400 ppm) | - (0-19% control at 400 ppm) | - (0-19% control at 400 ppm) | +++ (90-100% control at 100 ppm) | 0% | 0% | 0% | 0% | – |
| Clc1cnc2ccccc2c1NCC(Cl)c1ccccc1 (stereo not drawn) [Example 69, 3-chloro-N-(2-chloro-2-phenylethyl)-4-quinolinamine] | + (20-89% control at 400 ppm) | + (20-89% control at 400 ppm) | + (20-89% control at 400 ppm) | - (0-19% control at 400 ppm) | +++ (90-100% control at 100 ppm) | - (0-19% control at 400 ppm) | - (0-19% control at 400 ppm) | - (0-19% control at 400 ppm) | – | – | – | – | mortality at 200 ppm [9]: 0%; mortality at 200 ppm [10]: 0%; mortality at 200 ppm [11]: 0%; mortality at 12 ppm (corn rootworm): 0% |
| FC(F)(F)c1cc(C(F)(F)F)c2c(NCCc3ccccc3)ccnc2c1 [Example 70, N-(2-phenylethyl)-5,7-bis-(trifluoromethyl)-4-quinolinamine] | +++ (90-100% control at 100 ppm) | + (20-89% control at 400 ppm) | + (20-89% control at 400 ppm) | - (0-19% control at 400 ppm) | - (0-19% control at 400 ppm) | - (0-19% control at 400 ppm) | - (0-19% control at 400 ppm) | - (0-19% control at 400 ppm) | 0% | 0% | 0% | 0% | – |
| OCc1cnc2c(F)cccc2c1NCCc1ccccc1 [Example 73, 8-fluoro-4-[(2-phenylethyl)amino]-3-quinolinemethanol] | - (0-19% control at 400 ppm) | + (20-89% control at 400 ppm) | - (0-19% control at 400 ppm) | - (0-19% control at 400 ppm) | ++ (90-100% control at 400 ppm) | - (0-19% control at 400 ppm) | - (0-19% control at 400 ppm) | - (0-19% control at 400 ppm) | 0% | 0% | 0% | 0% | – |
| Fc1cccc2c(NCCc3ccc(Cl)c(Cl)c3)ccnc12 [Example 75, N-[2-(3,4-dichlorophenyl)ethyl]-8-fluoro-4-quinolinamine] | + (20-89% control at 400 ppm) | + (20-89% control at 400 ppm) | ++ (90-100% control at 400 ppm) | - (0-19% control at 400 ppm) | +++ (90-100% control at 100 ppm) | - (0-19% control at 400 ppm) | - (0-19% control at 400 ppm) | + (20-89% control at 400 ppm) | 0% | 0% | 0% | 0% | – |
